In ChEMBL document CHEMBL1145320, “3,4,5-Trisubstituted isoxazoles as novel PPARdelta agonists: Part 1” (Bioorg Med Chem Lett, 2006):

Legend:
[1] = target: T1, Peroxisome proliferator-activated receptor alpha (Homo sapiens, UniProt Q07869); assay: Agonist activity at PPARalpha by transactivation assay; assay type: functional
T1 sequence (Q07869 whole entry): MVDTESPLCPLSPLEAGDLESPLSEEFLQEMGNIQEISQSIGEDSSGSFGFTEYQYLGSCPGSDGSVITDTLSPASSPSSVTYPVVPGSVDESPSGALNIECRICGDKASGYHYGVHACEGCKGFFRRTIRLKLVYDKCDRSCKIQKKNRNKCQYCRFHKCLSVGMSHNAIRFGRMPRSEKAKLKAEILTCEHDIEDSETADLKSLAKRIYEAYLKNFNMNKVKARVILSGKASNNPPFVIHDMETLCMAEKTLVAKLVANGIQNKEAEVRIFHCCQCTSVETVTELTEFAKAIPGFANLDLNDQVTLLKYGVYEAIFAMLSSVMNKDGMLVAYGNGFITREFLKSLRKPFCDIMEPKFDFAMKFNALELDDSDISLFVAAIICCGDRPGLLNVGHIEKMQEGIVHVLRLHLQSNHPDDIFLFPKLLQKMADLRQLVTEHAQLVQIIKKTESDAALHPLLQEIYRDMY

[2] = target: T2, Peroxisome proliferator-activated receptor gamma (Homo sapiens, UniProt P37231); assay: Agonist activity at PPARgamma by transactivation assay; assay type: functional
T2 sequence (P37231 whole entry): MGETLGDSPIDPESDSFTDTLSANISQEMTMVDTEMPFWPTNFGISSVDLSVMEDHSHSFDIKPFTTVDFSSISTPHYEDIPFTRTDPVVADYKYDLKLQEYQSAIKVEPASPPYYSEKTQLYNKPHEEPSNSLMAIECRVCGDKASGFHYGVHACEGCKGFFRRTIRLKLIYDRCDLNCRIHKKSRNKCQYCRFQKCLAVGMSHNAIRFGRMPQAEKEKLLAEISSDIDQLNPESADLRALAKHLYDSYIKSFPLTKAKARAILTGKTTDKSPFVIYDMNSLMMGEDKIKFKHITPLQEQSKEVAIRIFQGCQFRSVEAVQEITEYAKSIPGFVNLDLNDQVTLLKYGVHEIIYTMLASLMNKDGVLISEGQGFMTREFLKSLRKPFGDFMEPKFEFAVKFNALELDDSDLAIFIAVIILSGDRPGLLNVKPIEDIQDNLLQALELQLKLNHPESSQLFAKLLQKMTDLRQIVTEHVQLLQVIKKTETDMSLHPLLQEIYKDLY

[3] = target: T3, Peroxisome proliferator-activated receptor delta (Homo sapiens, UniProt Q03181)
T3 sequence (Q03181 whole entry): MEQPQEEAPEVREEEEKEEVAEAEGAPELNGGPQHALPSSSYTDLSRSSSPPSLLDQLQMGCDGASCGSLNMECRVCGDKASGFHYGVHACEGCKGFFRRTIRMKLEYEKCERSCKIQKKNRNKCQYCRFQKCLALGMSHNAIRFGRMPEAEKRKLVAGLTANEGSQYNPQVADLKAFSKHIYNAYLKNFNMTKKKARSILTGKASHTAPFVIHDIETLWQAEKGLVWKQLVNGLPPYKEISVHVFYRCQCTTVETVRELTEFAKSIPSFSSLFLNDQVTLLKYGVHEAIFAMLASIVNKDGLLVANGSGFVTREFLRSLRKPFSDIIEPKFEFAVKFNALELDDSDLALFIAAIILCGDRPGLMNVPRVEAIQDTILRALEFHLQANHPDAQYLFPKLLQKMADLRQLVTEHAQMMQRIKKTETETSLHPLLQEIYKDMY
Description: (§1) Agonist activity at PPARdelta by transactivation assay

[4] = target: T3, Peroxisome proliferator-activated receptor delta; remark: listed apart in the source
Description: as §1

Row | EC50 ([1]; read-out: EC50) [µM] | EC50 ([2]; read-out: EC50) [µM] | EC50 [3] [nM] | EC50 [1] | EC50 [2] | EC50 [4] | Structure (SMILES)
1 | > 10 | > 10 | > 10000 | – | – | – | Cc1onc(-c2ccc(CC(=O)O)cc2Cl)c1C(=O)NCCOc1ccc(C(F)(F)F)cc1
2 | > 10 | > 10 | 3670 | – | – | – | CN(CCOc1ccc(Cl)cc1Cl)C(=O)c1c(-c2ccc(CC(=O)O)cc2Cl)noc1-c1ccccc1
3 | > 10 | > 10 | 80 | – | – | – | O=C(O)Cc1ccc(-c2noc(-c3ccccc3)c2C(=O)NCCOc2ccc(Cl)cc2Cl)c(Cl)c1
4 | – | – | – | Not Active | Not Active | Not Active | Cc1cc(SCc2cc(-c3c(Cl)cccc3Cl)no2)ccc1OCC(=O)O
5 | – | – | – | Not Active | Not Active | Not Active | O=C(O)Cc1ccc(-c2noc(C(=O)CCCOc3ccc(Cl)cc3Cl)c2-c2ccccc2)c(Cl)c1
6 | > 10 | > 10 | 2590 | – | – | – | CC(C)(C)c1onc(-c2ccc(CC(=O)O)cc2Cl)c1C(=O)NCCOc1ccc(Cl)cc1Cl
7 | > 10 | > 10 | 260 | – | – | – | Cc1onc(-c2ccc(CC(=O)O)cc2Cl)c1C(=O)NCCOc1ccc(C(F)(F)F)cc1C(F)(F)F
8 | 7.11 | > 10 | 90 | – | – | – | CC(C)c1onc(-c2ccc(CC(=O)O)cc2Cl)c1C(=O)NCCOc1ccc(Cl)cc1Cl
9 | > 10 | > 10 | 310 | – | – | – | Cc1onc(-c2ccc(CC(=O)O)cc2Cl)c1C(=O)NCCOc1ccc(Cl)cc1Cl
10 | > 10 | > 10 | > 10000 | – | – | – | Cc1onc(-c2ccc(CC(=O)O)cc2Cl)c1C(=O)NCCOc1ccccc1[N+](=O)[O-]
11 | > 10 | > 10 | 110 | – | – | – | CCc1onc(-c2ccc(CC(=O)O)cc2Cl)c1C(=O)NCCOc1ccc(Cl)cc1Cl

Row | Structure (SMILES) | EC50 ([1]; read-out: EC50) [µM] | EC50 ([2]; read-out: EC50) [µM] | EC50 [3] [nM] | EC50 [1] | EC50 [2] | EC50 [4]
12 | O=C(O)Cc1ccc(-c2noc(-c3ccco3)c2C(=O)NCCOc2ccc(Cl)cc2Cl)c(Cl)c1 | > 10 | > 10 | 10 | – | – | –
13 | O=C(O)Cc1ccc(-c2noc(C3CC3)c2C(=O)NCCOc2ccc(Cl)cc2Cl)c(Cl)c1 | 1.67 | 3.23 | 30 | – | – | –
14 | Cc1onc(-c2ccc(CC(=O)O)cc2Cl)c1COCCOc1ccc(C(F)(F)F)cc1[N+](=O)[O-] | 0.22 | > 10 | 130 | – | – | –
15 | Cc1onc(-c2ccc(CC(=O)O)cc2Cl)c1C(=O)NCCOc1ccc(C(F)(F)F)cc1[N+](=O)[O-] | 0.34 | 1.25 | 4 | – | – | –
16 | O=C(O)Cc1ccc(-c2noc(-c3ccccc3)c2C(=O)CCCOc2ccc(Cl)cc2Cl)c(Cl)c1 | > 10 | > 10 | 30 | – | – | –
17 | O=C(O)Cc1ccc(-c2noc(-c3ccccc3)c2COCCOc2ccc(Cl)cc2Cl)c(Cl)c1 | > 10 | > 10 | 190 | – | – | –
18 | Cc1onc(-c2c(Cl)cccc2Cl)c1C(=O)OCCOc1ccc(C(F)(F)F)cc1[N+](=O)[O-] | > 10 | > 10 | 230 | – | – | –
